Measured values taken from publication PMC6264682, “Synthesis and Adrenolytic Activity of New Propanolamines” (Molecules, 2010).
Several values for one entry are separate records, joined by “and”; a condition that tells them apart may be missing. Equal entries are not always repeated. Marks after values point to notes of the source that are not given here.

Assays:
α2-adrenoceptors = test: Radioligand binding assay, displacement of [3H]Clonidine, rat cerebral cortex; conditions: [3H]Clonidine 2 nM, ± SEM
Method: (§1) The experiment was carried out on rat cerebral cortex. […] The brains were homogenised in 20 vol of an ice-cold 50 mM Tris–HCl buffer (pH 7.6), and were centrifuged at 20.000 × g for 20 min (0–4 °C). The cell pellet was resuspended in the Tris–HCl buffer and centrifuged again. Radioligand binding assays were performed in plates (MultiScreen/Millipore). The final incubation mixture (final volume 300 μL) consisted of 240 μL of the membrane suspension, 30 μL of [^3H]Prazosin (0.2 nM), [^3H]Clonidine (2 nM) or [^3H]CGP12177 (0.2 nM) solution, and 30 μL of the buffer containing seven to eight concentrations (10^–11–10^–4 M) of the tested compounds. […] The incubation was terminated by rapid filtration over glass fibre filters (Whatman GF/C) using a vacuum manifold (Millipore). The filters were then washed twice with the assay buffer and placed in scintillation vials with a liquid scintillation cocktail. Radioactivity was measured in a WALLAC 1409 DSA liquid scintillation counter. All the assays were made in duplicate. The radioligand binding data were analyzed using an iterative curve-fitting routine (GraphPAD/Prism, Version 3.0, San Diego, CA, USA). Ki values were calculated from the Cheng and Prusoff equation [25].

[1] = system: anesthetized male Wistar rats; test: Effect on normal electrocardiogram (ECG) in vivo in rats; design: species or system rat; conditions: 1 mg∙kg^-1 iv, mean ± SEM
Method: The effects on ECG intervals and heart rate were determined for all tested compounds at the same dose of 1 mg∙kg^-1.
Electrocardiographic measurement was carried out using the Ascard B5 Eco apparatus, standard lead II, and paper speed of 50 mm∙s^-1. The tested compounds were administered intravenously in a dose of 1 mg∙kg^-1. The ECG recording was carried out immediately before and 1, 5 and 15 min after administration of the tested compounds. The effect of the compounds on rat ECG recording was calculated according to Cambridge et al..

α1-adrenoceptors = test: Radioligand binding assay, displacement of [3H]Prazosin, rat cerebral cortex; conditions: for Ki: rat cerebral cortex, [3H]Prazosin 0.2 nM, ± SEM
Method: as §1

[2] = system: adrenaline-induced arrhythmia; test: Prophylactic antiarrhythmic activity, adrenaline-induced arrhythmia in anesthetized rats; assay type: in vivo, rat; conditions: limits in brackets; for ED50 iv (dose producing 50% inhibition of premature ventricular beats): iv 15 min before adrenaline 20 μg∙kg^-1 iv; for ED50 po (dose producing 50% inhibition of premature ventricular beats): orally (intragastric) 60 min before adrenaline 20 μg∙kg^-1 iv
Method: The prophylactic antiarrhythmic activity of compounds 10 and 11 was determined using an adrenaline-induced arrhythmia model of in anesthetized rats.
Arrhythmia was evoked in thiopental (60 mg kg^-1, ip) – anaesthetized rats by iv injection of adrenaline (20 μg kg^-1). The tested compounds were administered intravenously 15 min or orally 60 min before adrenaline. […] The cardiac rhythm disturbances were recorded for 15 min after adrenaline injection. ECGs were analyzed according to the guidelines of the Lambeth Convention on ventricular premature beats (VBs), bigeminy, salvos (less than four successive VBs), ventricular tachycardia (VT, four or more successive VBs), and ventricular fibrillation (VF).

[3] = system: isolated rabbit small intestine; test: Influence on spontaneous contractions of isolated rabbit ileum; conditions: for Amplitude of contractions / Frequency of contractions: mean ± SEM
Method: The influence on isolated rabbit ileum of the investigated compounds on the smooth muscle was investigated on the rabbit small intestine, according to the Magnus’ method modified and described by Orisadipe et al. The white rabbits were sacrificed by cervical dislocation and the small intestine was immediately removed, and cut into strips about 3–4 cm long. The isolated strips were incubated in Krebs solution at 37 °C and aerated with carbogen in special laboratory dishes. The isolated strip of the intestine was placed in a test glass tube with the Krebs solution constantly aerated by carbogen. After 1 hour incubation period, during which the physiological saline solution was changed every 15 min, the influence of the investigated compounds on spontaneous contractions of the rabbit ileum was evaluated. The contraction of the intestine was recorded on a TZ-4100 line recorder via isometric Harvard transducer, at the muscle load of 1 g. The influence of every single dose was recorded for 5 min.

[4] = system: normotensive anesthetized rats; test: Influence on blood pressure in normotensive anesthetized rats; assay type: in vivo, rat
Method: Hypotensive activity of compounds 10 and 11 was determined after iv and po administration to normotensive anesthetized rats.
Male Wistar normotensive rats were anesthetized with thiopental (50–75 mg kg^-1, ip). The right carotid artery was cannulated with a polyethylene tube, filled with heparin in saline to facilitate pressure measurement using the Datamax apparatus (Columbus Instruments). […]

[5] = time 0 min (immediately before administration, baseline)
[6] = concentration 0 (control before 10^-5 M)
[7] = concentration 0 (control before 10^-6 M)
[8] = concentration 0 (control before 10^-7 M)
[9] = concentration 0 (control before 10^-8 M)
[10] = concentration 0 (control before 10^-9 M)
[11] = po, 2 mg∙kg^-1, from 40 to 90 min

SMILES: COc1ccccc1OCCNCC(O)COc1cccc2[nH]ccc12 (racemic) [(R,S)-9, (2R,S)-1-(1H-indol-4-yloxy)-3-(2-(2-methoxyphenoxy)ethylamino)propan-2-ol, reference compound]
- Ki (α2-adrenoceptors): 1400 ± 400 nM
- P–Q ([1]; 1 min after administration): 47.2 ± 1.6 ms
- QRS ([1]; 1 min after administration): 28.4 ± 1.2 ms
- Q–T ([1]; 1 min after administration): 69.2 ± 1.1 ms
- heart rate ([1]; 1 min after administration): 298.7 ± 7.2 Beats/min
- QRS ([1]; 5 min after administration): 24.9 ± 1.3 ms
- Q–T ([1]; 5 min after administration): 69.0 ± 1.6 ms
- heart rate ([1]; 5 min after administration): 294.5 ± 7.7 Beats/min
- P–Q ([1]; 15 min after administration): 46.2 ± 1.7 ms
- QRS ([1]; 15 min after administration): 26.9 ± 1.1 ms
- Q–T ([1]; 15 min after administration): 72.8 ± 1.3 ms
- heart rate ([1]; 15 min after administration): 287.3 ± 7.9 Beats/min
- P–Q [1, 5]: 45.7 ± 2.0 ms
- QRS [1, 5]: 26.4 ± 1.3 ms
- Q–T [1, 5]: 72.6 ± 1.7 ms
- heart rate [1, 5]: 304.9 ± 8.9 Beats/min
- ED50 iv (dose producing 50% inhibition of premature ventricular beats) [2]: 0.34 (0.23–0.51) mg∙kg^-1
- ED50 po (dose producing 50% inhibition of premature ventricular beats) [2]: 0.44 (0.18 ± 1.10) mg∙kg^-1

SMILES: COc1ccccc1OCCNCC(O)COc1cccc2[nH]c3ccccc3c12 (stereo not shown) [Carvedilol, reference compound]
- heart rate [1, 5]: 356.7 ± 21.0 Beats/min

SMILES: COCc1cc2[nH]ccc2c(OC)c1OCC(O)CNCCOc1ccccc1OC [Compound 10, (2R,S)-1-(4-Methoxy-6-(methoxymethyl)-1H-indol-5-yloxy)-3-(2-(2-methoxyphenoxy)ethylamino)propan-2-ol]
- Ki (α2-adrenoceptors): 307 ± 11.7 nM
- P–Q ([1]; 1 min after administration): 45.6 ± 1.6^b ms
- QRS ([1]; 1 min after administration): 31.2 ± 0.5^c ms
- Q–T ([1]; 1 min after administration): 92.0 ± 4.2 ms
- heart rate ([1]; 1 min after administration): 334.0 ± 13.0 Beats/min
- P–Q ([1]; 5 min after administration): 46.8 ± 1.6^c ms
- QRS ([1]; 5 min after administration): 31.2 ± 1.0^c ms
- Q–T ([1]; 5 min after administration): 100.0 ± 2.8 ms
- heart rate ([1]; 5 min after administration): 309.6 ± 13.7 Beats/min
- P–Q ([1]; 15 min after administration): 46.4 ± 1.6^c ms
- QRS ([1]; 15 min after administration): 32.4 ± 0.8^d ms
- Q–T ([1]; 15 min after administration): 104.0 ± 1.4^a ms
- heart rate ([1]; 15 min after administration): 297.4 ± 12.4 Beats/min
- P–Q [1, 5]: 40.4 ± 0.4 ms
- QRS [1, 5]: 27.6 ± 0.8 ms
- Q–T [1, 5]: 94.4 ± 2.8 ms
- heart rate [1, 5]: 329.4 ± 12.2 Beats/min
- increased frequency of contractions ([3]; 10^-5 M): about 8%
- Amplitude of contractions ([3]; 10^-5 M): 1.11 ± 0.09^c g
- Frequency of contractions ([3]; 10^-5 M): 10.70 ± 0.25^a min ^-1
- Amplitude of contractions ([3]; 10^-6 M): 1.10 ± 0.07^c g
- Frequency of contractions ([3]; 10^-6 M): 11.60 ± 0.22 min ^-1
- Amplitude of contractions ([3]; 10^-7 M): 1.29 ± 0.05^a g
- Frequency of contractions ([3]; 10^-7 M): 12.15 ± 0.15 min ^-1
- Amplitude of contractions ([3]; 10^-8 M): 1.31 ± 0.06^b g
- Frequency of contractions ([3]; 10^-8 M): 12.15 ± 0.18 min ^-1
- Amplitude of contractions ([3]; 10^-9 M): 1.56 ± 0.06 g
- Frequency of contractions ([3]; 10^-9 M): 12.14 ± 0.22 min ^-1
- Amplitude of contractions [3, 6]: 1.72 ± 0.11 g
- Frequency of contractions [3, 6]: 11.61 ± 0.27 min ^-1
- Amplitude of contractions [3, 7]: 1.63 ± 0.10 g
- Frequency of contractions [3, 7]: 12.24 ± 0.25 min ^-1
- Amplitude of contractions [3, 8]: 1.55 ± 0.10 g
- Frequency of contractions [3, 8]: 12.05 ± 0.19 min ^-1
- Amplitude of contractions [3, 9]: 1.53 ± 0.06 g
- Frequency of contractions [3, 9]: 11.77 ± 0.14 min ^-1
- Amplitude of contractions [3, 10]: 1.43 ± 0.06 g
- Frequency of contractions [3, 10]: 12.74 ± 0.20 min ^-1
- diminished amplitude of contractions ([3]; range of concentrations 10^-8–10^-5 M): 14 to 35%
- selectivity towards α1-adrenergic receptors (α1-adrenoceptors; from Ki values of Table 1): 52 fold
- Ki (α1-adrenoceptors): 5.9 ± 0.3 nM
- ED50 iv (dose producing 50% inhibition of premature ventricular beats) [2]: 0.35 (0.18–0.72) mg∙kg^-1
- ED50 po (dose producing 50% inhibition of premature ventricular beats) [2]: 1.71 mg∙kg^-1 and 1.71 (1.52 ± 1.93) mg∙kg^-1
- time after administration in which diastolic blood pressure was decreased ([4]; iv, 0.25 mg·kg^-1): 10 min
- time after administration in which systolic blood pressure was decreased ([4]; iv, 0.25 mg·kg^-1): 20 min
- time over which diastolic blood pressure was significantly decreased ([4]; iv, 0.5 mg∙kg^-1): ≤ 10 min
- decrease of systolic blood pressure ([4]; iv, 0.5 mg∙kg^-1, throughout the whole observation period): 8–14%
- hypotensive activity ([4]; po, 1 mg∙kg^-1): disappeared
- decrease of diastolic blood pressure [4, 11]: 11–23%
- decrease of systolic blood pressure [4, 11]: 9–18%
